Patent US20030109581A1, “Chemical attractants for yellowjacket wasps” (priority 2001, published 2003)

What was measured:
[1] = tested on: Vespula maculifrons; assay: Field trap captures, BARC-W, 9 days in September/October; format: in vivo
Procedure: (§1) Field tests were carried out using lures prepared as described in Example 1. Traps baited with various prepared lures, in addition to unbaited control traps, were hung from trees or fences at three locations: Beltsville Agricultural Research Center-West (BARC-W), Beltsville, Md.; University of Maryland Apiary; and a private residence, Silver Spring, Md., with apple trees on the property. Most tests were conducted late in the season when populations of yellowjackets were greatest. After exposure in the field for varying periods of time, traps were brought to the laboratory for sorting and counting insects by species.
The equivalence of T vs. L was tested along with the effect of B and the possible synergism of HB. Six chemical treatments in replicates of three were tested over a period of 9 days in September/October at BARC-W: IB/AA; HB+A/T/B; IB/AA+A/T;
The test also corroborates earlier results indicating localized distribution of yellowjacket species since no V. squamosa were captured and only one individual of V. germanica was caught. The synergistic effect between IB/AA and the novel blends was also confirmed.
Polyvinyl chloride (PVC) plugs containing an about 16% load of volatiles were prepared. For purposes of example, lures containing (E)-2-hexenal diethyl acetal, A (Bedoukian, Inc., Danbury, Conn.) and linalool, L (Aldrich Chemicals, Milwaukee, Wis.) are described. […]

[2] = tested on: Vespula maculifrons (eastern yellowjacket); assay: Field trap captures, BARC-W, 7 days in September (FIG. 1); format: in vivo
Procedure: as §1
In initial experiments, the equivalence of H vs. A was tested along with the synergism between IB/AA and H/T/B or A/T/B blends. […] The use of acetal (A) is considered more desirable than hexenal (H) for this type of lure because of its lower volatility and greater stability.
Polyvinyl chloride (PVC) plugs containing an about 16% load of volatiles were prepared. For purposes of example, lures containing (E)-2-hexenal diethyl acetal, A (Bedoukian, Inc., Danbury, Conn.) and linalool, L (Aldrich Chemicals, Milwaukee, Wis.) are described.
PVC resin (200 g) was mixed thoroughly with 60 ml dioctyl phthalate, a blend of 30 ml of A with 20 ml of L was poured into the plasticized PVC and mixed. […]

Compound: OCc1ccccc1 [B, benzyl alcohol]
- effect of B on lure activity [1]: is not essential for lure activity

Compound: CCC/C=C/C(OCC)OCC [A, (E)-2-hexenal diethyl acetal]
- equivalence of H vs. A [2]: can effectively replace H in this system

Compound: C=CC(C)(O)CCC=C(C)C (stereo not drawn) [L, linalool]
- equivalence of T vs. L [1]: effectively substitutes for T
